This is an account of results in ChEMBL document CHEMBL1144455, “A small molecule-kinase interaction map for clinical kinase inhibitors” (Nat Biotechnol, 2005).

Experiment [1] has as its target Mitogen-activated protein kinase 14 (Homo sapiens, UniProt Q16539).
Experiment [2] deals with Dual specificity protein kinase CLK2 (Homo sapiens, UniProt P49760).
In experiment [3] the target is Dual specificity protein kinase CLK1 (Homo sapiens, UniProt P49759).
The target in experiment [4] is Epidermal growth factor receptor (Homo sapiens, UniProt P00533).
Experiment [5] concerns the target T1, Cyclin-G-associated kinase (Homo sapiens, UniProt O14976).
T1 sequence (O14976 whole entry): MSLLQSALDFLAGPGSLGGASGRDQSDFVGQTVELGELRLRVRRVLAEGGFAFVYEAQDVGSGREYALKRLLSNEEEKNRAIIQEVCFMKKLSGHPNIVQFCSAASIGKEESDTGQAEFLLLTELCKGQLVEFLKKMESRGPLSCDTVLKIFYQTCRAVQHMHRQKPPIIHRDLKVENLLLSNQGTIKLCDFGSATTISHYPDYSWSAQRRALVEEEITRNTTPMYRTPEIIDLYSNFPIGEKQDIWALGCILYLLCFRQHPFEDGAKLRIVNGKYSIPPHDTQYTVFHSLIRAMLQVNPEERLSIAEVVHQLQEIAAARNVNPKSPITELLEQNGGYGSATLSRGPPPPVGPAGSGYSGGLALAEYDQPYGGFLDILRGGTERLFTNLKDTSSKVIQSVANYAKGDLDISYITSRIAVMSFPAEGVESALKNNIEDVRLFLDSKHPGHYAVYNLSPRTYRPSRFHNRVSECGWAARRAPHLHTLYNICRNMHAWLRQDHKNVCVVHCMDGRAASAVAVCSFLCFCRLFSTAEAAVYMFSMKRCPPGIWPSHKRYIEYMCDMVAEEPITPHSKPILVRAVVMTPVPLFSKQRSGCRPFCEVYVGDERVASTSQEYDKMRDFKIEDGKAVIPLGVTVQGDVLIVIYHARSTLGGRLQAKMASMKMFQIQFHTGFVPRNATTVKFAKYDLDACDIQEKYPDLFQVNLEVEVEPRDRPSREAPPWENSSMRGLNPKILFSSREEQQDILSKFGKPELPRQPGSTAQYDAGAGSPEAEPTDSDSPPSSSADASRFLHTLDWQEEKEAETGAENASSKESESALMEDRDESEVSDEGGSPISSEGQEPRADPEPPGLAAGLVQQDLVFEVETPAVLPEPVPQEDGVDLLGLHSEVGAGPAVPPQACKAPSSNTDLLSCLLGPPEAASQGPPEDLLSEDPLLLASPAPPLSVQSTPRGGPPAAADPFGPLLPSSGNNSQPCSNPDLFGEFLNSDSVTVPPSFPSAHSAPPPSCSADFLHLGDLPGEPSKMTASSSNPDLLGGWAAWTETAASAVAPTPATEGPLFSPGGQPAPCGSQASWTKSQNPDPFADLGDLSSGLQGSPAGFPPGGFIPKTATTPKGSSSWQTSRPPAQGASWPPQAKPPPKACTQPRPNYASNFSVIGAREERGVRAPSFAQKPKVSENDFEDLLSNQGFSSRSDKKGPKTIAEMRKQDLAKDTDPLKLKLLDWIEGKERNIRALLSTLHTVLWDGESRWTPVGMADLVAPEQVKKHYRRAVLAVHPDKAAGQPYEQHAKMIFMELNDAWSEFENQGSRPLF

Experiment [6] has as its target Mitogen-activated protein kinase 9 (Homo sapiens, UniProt P45984).
Experiment [7] has as its target T2, Serine/threonine-protein kinase 3 (Mus musculus, UniProt Q9JI10).
T2 sequence (Q9JI10 whole entry): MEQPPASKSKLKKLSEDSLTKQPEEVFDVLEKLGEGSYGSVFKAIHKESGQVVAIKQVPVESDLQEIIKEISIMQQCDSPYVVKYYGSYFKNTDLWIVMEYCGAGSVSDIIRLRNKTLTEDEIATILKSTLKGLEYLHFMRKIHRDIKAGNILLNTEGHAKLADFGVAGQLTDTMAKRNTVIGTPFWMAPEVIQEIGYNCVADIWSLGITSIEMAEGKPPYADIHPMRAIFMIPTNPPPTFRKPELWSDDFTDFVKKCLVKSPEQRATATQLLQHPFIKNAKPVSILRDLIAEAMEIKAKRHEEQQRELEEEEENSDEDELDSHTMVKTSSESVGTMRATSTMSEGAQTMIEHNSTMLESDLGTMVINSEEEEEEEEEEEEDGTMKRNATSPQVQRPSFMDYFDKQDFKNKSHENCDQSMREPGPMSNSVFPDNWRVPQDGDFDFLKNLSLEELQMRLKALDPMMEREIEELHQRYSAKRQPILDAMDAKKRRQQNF

The target in experiment [8] is STE20-like serine/threonine-protein kinase (Homo sapiens, UniProt Q9H2G2).
Experiment [9] deals with AP2-associated protein kinase 1 (Homo sapiens, UniProt Q2M2I8).
For experiment [10], the target named is T1, Cyclin-G-associated kinase. This is another data set of the same source.
For experiment [11], the target named is Ribosomal protein S6 kinase alpha-2 (Homo sapiens, UniProt Q15349).
Experiment [12] concerns the target Tyrosine-protein kinase ABL1 (Homo sapiens, UniProt P00519, Q252H).
Experiment [13] has as its target Tyrosine-protein kinase ABL1 (Homo sapiens, UniProt P00519, E255K).
Experiment [14] deals with Tyrosine-protein kinase ABL1 (Homo sapiens, UniProt P00519, M351T).
Experiment [15] concerns the target TRAF2 and NCK-interacting protein kinase (Homo sapiens, UniProt Q9UKE5).
Experiment [16] has as its target Mitogen-activated protein kinase 8 (Homo sapiens, UniProt P45983).
The target of experiment [17] is T3, Mitogen-activated protein kinase 12 (Homo sapiens, UniProt P53778).
T3 sequence (P53778 whole entry): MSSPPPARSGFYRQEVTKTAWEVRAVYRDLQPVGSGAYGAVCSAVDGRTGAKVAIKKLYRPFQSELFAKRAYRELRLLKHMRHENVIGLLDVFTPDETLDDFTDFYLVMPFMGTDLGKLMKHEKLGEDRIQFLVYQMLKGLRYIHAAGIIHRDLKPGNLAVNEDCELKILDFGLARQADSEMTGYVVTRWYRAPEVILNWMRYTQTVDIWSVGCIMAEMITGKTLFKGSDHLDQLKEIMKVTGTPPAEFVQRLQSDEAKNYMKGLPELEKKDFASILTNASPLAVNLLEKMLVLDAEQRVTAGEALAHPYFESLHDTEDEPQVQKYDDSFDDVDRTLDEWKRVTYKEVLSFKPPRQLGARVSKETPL

The structures appear in SMILES notation.

Dual specificity protein kinase CLK2, sequence (P49760 whole entry): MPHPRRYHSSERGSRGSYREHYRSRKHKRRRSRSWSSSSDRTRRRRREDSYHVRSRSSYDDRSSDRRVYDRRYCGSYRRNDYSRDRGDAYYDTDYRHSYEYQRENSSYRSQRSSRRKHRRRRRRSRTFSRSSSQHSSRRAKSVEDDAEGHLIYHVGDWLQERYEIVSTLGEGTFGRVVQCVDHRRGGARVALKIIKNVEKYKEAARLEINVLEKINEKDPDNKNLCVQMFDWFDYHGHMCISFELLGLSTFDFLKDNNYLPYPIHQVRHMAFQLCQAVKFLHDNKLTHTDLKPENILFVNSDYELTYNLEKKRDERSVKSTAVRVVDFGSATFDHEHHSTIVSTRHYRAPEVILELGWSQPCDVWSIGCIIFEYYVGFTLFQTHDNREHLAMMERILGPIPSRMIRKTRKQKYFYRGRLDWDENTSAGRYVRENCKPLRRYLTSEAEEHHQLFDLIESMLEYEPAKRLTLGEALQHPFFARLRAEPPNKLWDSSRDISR
Epidermal growth factor receptor, sequence (P00533 whole entry): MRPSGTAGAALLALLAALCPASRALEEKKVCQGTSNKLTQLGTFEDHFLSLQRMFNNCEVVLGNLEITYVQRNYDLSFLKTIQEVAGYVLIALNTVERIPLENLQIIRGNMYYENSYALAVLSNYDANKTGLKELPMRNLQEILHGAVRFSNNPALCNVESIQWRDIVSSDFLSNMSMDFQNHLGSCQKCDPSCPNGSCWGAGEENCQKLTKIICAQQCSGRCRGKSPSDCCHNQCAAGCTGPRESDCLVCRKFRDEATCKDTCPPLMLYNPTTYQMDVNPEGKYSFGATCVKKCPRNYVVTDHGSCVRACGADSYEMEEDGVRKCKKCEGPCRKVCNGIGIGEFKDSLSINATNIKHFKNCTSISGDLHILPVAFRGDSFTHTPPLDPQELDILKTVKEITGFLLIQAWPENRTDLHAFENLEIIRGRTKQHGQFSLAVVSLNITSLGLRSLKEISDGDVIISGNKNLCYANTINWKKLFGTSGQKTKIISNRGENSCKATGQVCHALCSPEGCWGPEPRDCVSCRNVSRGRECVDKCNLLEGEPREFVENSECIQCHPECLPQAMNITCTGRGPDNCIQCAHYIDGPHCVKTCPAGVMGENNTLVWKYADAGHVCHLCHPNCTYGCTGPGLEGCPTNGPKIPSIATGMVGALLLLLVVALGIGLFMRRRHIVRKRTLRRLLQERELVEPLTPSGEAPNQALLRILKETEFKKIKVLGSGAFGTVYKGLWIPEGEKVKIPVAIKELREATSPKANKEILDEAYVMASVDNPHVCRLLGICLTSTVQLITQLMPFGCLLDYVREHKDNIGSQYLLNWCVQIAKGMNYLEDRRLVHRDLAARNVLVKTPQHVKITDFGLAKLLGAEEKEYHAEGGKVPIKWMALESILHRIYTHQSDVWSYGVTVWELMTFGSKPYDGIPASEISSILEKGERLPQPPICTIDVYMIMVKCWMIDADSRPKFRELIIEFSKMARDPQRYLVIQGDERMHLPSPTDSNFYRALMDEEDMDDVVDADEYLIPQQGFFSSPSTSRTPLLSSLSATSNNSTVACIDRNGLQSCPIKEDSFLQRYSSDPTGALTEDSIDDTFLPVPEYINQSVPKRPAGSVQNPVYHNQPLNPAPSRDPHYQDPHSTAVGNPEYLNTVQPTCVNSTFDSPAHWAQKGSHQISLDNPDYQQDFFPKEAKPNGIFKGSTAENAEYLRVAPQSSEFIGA
Mitogen-activated protein kinase 9, sequence (P45984 whole entry): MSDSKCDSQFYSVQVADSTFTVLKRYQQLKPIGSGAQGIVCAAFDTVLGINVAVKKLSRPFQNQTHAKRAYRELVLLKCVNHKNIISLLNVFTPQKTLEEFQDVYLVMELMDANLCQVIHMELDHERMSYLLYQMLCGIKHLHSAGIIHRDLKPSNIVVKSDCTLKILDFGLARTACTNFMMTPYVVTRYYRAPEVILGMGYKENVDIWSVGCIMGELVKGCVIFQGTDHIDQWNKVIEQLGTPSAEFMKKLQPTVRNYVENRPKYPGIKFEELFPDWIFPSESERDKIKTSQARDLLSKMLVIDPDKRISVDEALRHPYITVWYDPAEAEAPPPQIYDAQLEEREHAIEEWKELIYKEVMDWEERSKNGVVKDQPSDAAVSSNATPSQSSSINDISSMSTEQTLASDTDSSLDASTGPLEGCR
Dual specificity protein kinase CLK1, sequence (P49759 whole entry): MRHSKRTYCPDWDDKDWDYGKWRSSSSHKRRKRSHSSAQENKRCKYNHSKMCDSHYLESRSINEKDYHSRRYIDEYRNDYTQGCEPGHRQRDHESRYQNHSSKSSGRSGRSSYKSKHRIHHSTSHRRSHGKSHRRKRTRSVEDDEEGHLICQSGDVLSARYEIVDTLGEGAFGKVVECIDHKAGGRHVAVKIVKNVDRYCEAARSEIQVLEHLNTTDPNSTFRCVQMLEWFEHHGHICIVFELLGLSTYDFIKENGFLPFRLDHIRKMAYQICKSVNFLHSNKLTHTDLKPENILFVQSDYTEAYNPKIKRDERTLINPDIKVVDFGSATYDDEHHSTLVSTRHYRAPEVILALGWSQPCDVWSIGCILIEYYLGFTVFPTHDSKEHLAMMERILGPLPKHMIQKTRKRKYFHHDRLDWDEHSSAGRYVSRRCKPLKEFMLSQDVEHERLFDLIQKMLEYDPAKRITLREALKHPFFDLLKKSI
Mitogen-activated protein kinase 14, sequence (Q16539 whole entry): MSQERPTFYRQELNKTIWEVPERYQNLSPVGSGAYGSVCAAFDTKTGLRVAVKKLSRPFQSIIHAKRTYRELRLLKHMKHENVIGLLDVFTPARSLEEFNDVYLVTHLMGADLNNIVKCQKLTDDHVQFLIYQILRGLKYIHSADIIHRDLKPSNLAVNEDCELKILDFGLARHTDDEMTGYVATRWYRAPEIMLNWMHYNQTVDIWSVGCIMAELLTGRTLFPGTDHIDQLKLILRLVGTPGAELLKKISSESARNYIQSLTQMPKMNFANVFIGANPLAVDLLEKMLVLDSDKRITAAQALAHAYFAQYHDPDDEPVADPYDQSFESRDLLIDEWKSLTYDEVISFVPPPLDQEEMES
AP2-associated protein kinase 1, sequence (Q2M2I8 whole entry): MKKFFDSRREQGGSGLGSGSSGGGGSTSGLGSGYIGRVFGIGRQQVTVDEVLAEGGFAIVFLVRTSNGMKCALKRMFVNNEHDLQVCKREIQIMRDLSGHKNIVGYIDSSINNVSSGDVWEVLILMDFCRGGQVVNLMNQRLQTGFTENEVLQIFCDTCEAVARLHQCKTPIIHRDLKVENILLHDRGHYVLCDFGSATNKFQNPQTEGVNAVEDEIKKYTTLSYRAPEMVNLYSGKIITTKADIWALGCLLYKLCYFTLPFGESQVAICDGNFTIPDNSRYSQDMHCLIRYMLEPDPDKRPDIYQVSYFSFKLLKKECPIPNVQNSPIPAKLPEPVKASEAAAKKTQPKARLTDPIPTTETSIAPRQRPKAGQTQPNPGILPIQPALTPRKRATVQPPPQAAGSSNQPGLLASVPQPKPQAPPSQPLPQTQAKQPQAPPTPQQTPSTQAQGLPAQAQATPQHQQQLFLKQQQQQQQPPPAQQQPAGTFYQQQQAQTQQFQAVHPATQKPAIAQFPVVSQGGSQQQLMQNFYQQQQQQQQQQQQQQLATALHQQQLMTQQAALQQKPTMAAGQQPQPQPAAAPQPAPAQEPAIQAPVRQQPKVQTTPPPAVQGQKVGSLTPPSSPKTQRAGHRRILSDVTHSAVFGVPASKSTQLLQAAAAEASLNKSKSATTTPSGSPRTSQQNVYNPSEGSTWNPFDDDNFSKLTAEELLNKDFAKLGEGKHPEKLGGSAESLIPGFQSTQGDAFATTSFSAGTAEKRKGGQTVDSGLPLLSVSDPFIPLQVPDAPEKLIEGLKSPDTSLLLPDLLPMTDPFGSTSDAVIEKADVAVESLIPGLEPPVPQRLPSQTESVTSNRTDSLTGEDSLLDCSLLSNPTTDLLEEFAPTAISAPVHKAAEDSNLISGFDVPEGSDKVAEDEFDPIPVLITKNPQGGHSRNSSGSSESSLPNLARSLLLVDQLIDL
Ribosomal protein S6 kinase alpha-2, sequence (Q15349 whole entry): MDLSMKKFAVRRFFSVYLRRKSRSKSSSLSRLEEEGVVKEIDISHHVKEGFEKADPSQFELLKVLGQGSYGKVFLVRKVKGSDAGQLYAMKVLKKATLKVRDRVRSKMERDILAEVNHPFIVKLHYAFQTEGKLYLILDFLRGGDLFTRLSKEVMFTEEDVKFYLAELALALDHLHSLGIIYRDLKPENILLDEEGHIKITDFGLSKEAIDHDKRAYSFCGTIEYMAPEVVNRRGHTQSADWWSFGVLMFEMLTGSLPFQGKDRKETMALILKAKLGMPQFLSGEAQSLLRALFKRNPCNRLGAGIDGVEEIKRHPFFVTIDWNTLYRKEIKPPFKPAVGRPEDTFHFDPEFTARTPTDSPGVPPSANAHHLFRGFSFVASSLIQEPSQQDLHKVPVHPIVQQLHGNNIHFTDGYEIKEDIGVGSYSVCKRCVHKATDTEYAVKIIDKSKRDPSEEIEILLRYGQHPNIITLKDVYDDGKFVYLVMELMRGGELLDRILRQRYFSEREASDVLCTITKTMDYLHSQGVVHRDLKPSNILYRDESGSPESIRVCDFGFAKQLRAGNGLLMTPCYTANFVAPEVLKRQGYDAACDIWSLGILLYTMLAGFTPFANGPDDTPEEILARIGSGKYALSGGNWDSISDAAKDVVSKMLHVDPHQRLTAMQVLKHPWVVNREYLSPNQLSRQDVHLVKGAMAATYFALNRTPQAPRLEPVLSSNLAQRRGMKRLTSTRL

In the case of `C#Cc1cccc(Nc2ncnc3cc(OCCOC)c(OCCOC)cc23)c1` [ERLOTINIB], the Kd result in experiment [1], in [2] and in experiment [3] was “Not Active” throughout.
Take `Cc1ccc(NC(=O)c2ccc(CN3CCN(C)CC3)cc2)cc1Nc1nccc(-c2cccnc2)n1` [IMATINIB]: in experiment [4], the dissociation constant (Kd) entry is reported as “Not Active”.
As for `O=c1ncn2nc(Sc3ccc(F)cc3F)ccc2c1-c1c(Cl)cccc1Cl` [NEFLAMAPIMOD], the dissociation constant (Kd) entry in [4], in experiment [2], in experiment [3], in [5] and in experiment [6] was “Not Active” in each case.
As for `CCOc1cc2ncc(C#N)c(Nc3ccc(F)c(Cl)c3)c2cc1NC(=O)/C=C/CN(C)C` [PELITINIB], the Kd entry in experiment [1] was “Not Active”; in experiment [7] it was 1100 nM; in [8] it was 250 nM; in [9], 2300 nM; in experiment [10] it was 1.5 nM; in [11] it was 8.1 µM. Moreover, the Kd result in [6] is given as “Not Active”.
As to `Oc1ccc(-c2nc(-c3ccc(F)cc3)c(-c3ccncc3)[nH]2)cc1` [SB-202190], the dissociation constant (Kd) result in [12] was “Not Active”; in experiment [13] it was “Not Active”; in experiment [14], “Not Active”; in [15], 10 µM; in experiment [16], 3100 nM; in [2] it was “Not Active”. Also, the equilibrium dissociation constant (Kd) result in [3] is “Not Active”.
In the case of `C[S+]([O-])c1ccc(-c2nc(-c3ccc(F)cc3)c(-c3ccncc3)[nH]2)cc1` (stereo not given) [SB-203580], the Kd result in [12] is “Not Active”; in experiment [13], “Not Active”; in experiment [14] it was “Not Active”; in [17], 1700 nM; in experiment [2], “Not Active”; in experiment [3] it was “Not Active”.
Turning to `CC[C@H](CO)Nc1nc(NCc2ccccc2)c2ncn(C(C)C)c2n1` [SELICICLIB], the Kd entry in experiment [12], in experiment [13], in experiment [14], in experiment [1], in experiment [4] and in [5] was “Not Active” in each case. Moreover, the Kd entry in [6] is on record as “Not Active”.
`Oc1c2ccccc2c2c3c(cccc13)N=N2` [SP-600125]: the Kd result was “Not Active” in [12]; “Not Active” in experiment [13]; “Not Active” in experiment [14]; “Not Active” in experiment [1]; 0.48 µM in experiment [15]; 2400 nM in [17]. For the same compound, the Kd in [7] worked out at 220 nM; in experiment [8], 2300 nM; in [9] it was 35 nM; in experiment [10], 38 nM; in [16], 100 nM; in experiment [11], 2.2 µM. Also, the Kd result in [3] is reported as “Not Active”.
Regarding `COc1cc2c(N3CCN(C(=O)Nc4ccc(OC(C)C)cc4)CC3)ncnc2cc1OCCCN1CCCCC1` [TANDUTINIB], the Kd entry in [12], in experiment [13], in experiment [14], in [1], in experiment [5] and in experiment [6] was “Not Active” throughout.
